Test results as given in US11999723B2, “Pyrazole-containing macrophage migration inhibitory factor inhibitors” (priority 2018, dated 2024).

target: MIF (Homo sapiens (Human), UniProt P14174); assay: HPP tautomerase assay (inhibition of the tautomerase activity of MIF); format: biochemical; settings: not given
Description: Inhibition of the tautomerase activity of MIF was measured using the substrate 4-hydroxyphenyl pyruvic acid (HPP) in a procedure largely adapted from previous reports. A solution of HPP (10 mM) in acetate buffer (0.5 M ammonium acetate, pH adjusted to 6.0) was prepared and allowed to incubate overnight in the dark at room temperature to allow for equilibration of the keto and enol forms. Following the incubation period, the HPP solution was stored at 4° C. and used for no more than a week. […] A negative control (containing water and DMSO in lieu of protein and inhibitor, respectively) and a positive control (containing DMSO in lieu of inhibitor) were also prepared. The reaction began upon the addition of HPP solution (final concentration: 1.0 mM and 2.5 mM). […] Absorbance was measured three times for each [inhibitor]-[HPP] combination. […] Reported Ki values represent the average value obtained from two assays performed on different days. (R)-ISO-1 (purchased from Santa Cruz Biotechnology) was used as a control.
Recombinant human MIF was expressed and purified according to published protocols. Briefly, for the purification of MIF, E. coli cell pellets were suspended in lysis buffer (20 mM Tris, pH 7.5; 20 mM sodium chloride; 10% glycerol; 2 mM magnesium chloride; 1 cOmplete mini protease inhibitor cocktail tablet per 250 mL of buffer). The solution was sonicated and centrifuged at 27,000G for 30 mins. The supernatant was filtered through a 0.22 μm syringe filter and loaded on a GE Healthcare Hi-Trap SP HP column in sequence with a GE Healthcare Hi-Trap Q SP column equilibrated with a buffer composed of 20 mM NaCl and 20 mM Tris, pH 7.5. […] To achieve highest purity, the flow-through was further purified with a GE Healthcare Superdex 200 column. The purified protein was concentrated with a 10 kDa centrifugal filter unit to 30 mg/mL, flash-frozen in liquid nitrogen, and stored at −80° C.
As in prior studies, the inhibition constants Ki were determined using HPP as the substrate. […] In addition, the aqueous solubilities of several compounds were measured with a shake-flask procedure.

Chain of MIF (P14174 2-115): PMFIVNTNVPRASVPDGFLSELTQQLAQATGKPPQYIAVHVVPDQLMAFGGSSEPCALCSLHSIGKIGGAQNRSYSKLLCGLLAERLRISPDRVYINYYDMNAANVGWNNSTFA

With `O=C(O)c1cc(-c2cn[nH]c2)ccc1-c1ccc2ccccc2c1` [Compound 6c, 2-(Naphthalen-2-yl)-5-(1H-pyrazol-4-yl)benzoic acid] the Ki was 5000 nM.

same assay, conditions: HPP as substrate; MIF tautomerase; read-out: Experimental inhibition constants, Ki

Point of comparison: `CS(=O)(=O)c1cc(-c2cn[nH]c2)ccc1Oc1ccc2ccccc2c1` [Compound 8h, 4-(3-(Methylsulfonyl)-4-(naphthalen-2-yloxy)phenyl)-1H-pyrazole], Ki 6400 nM. Against it:
- O=C(O)c1cc(-c2cn[nH]c2)ccc1-c1ccccc1 [Compound 6a, 4-(1H-pyrazol-4-yl)-[1,1′-biphenyl]-2-carboxylic acid] — 3.2-fold higher, 20600 nM
- O=C(O)c1cc(-c2cn[nH]c2)ccc1-c1cccc2ccccc12 [Compound 6b, 2-(Naphthalen-1-yl)-5-(1H-pyrazol-4-yl)benzoic acid] — 3-fold higher, 19500 nM
- O=C(O)c1cc(-c2cn[nH]c2)ccc1-c1ccc2ccccc2c1 [Compound 6c, 2-(Naphthalen-2-yl)-5-(1H-pyrazol-4-yl)benzoic acid] — within 1.5-fold, 5400 nM
- O=C(O)c1cc(-c2cn[nH]c2)ccc1Nc1ccccc1 [Compound 7a, 2-(Phenylamino)-5-(1H-pyrazol-4-yl)benzoic acid] — 2-fold higher, 12700 nM
- CN(c1ccc2ccccc2c1)c1ccc(-c2cn[nH]c2)cc1C(=O)O [Compound 7b, 2-(Methyl(naphthalen-2-yl)amino)-5-(1H-pyrazol-4-yl)benzoic acid] — 1.5-fold lower, 4200 nM
- O=C(O)c1cc(-c2cn[nH]c2)ccc1Oc1ccccc1 [Compound 8a, 2-Phenoxy-5-(1H-pyrazol-4-yl)benzoic acid] — within 1.5-fold, 6800 nM
- Cc1ccccc1Oc1ccc(-c2cn[nH]c2)cc1C(=O)O [Compound 8b, 5-(1H-Pyrazol-4-yl)-2-(o-tolyloxy)benzoic acid] — within 1.5-fold, 4300 nM
- Cc1cccc(Oc2ccc(-c3cn[nH]c3)cc2C(=O)O)c1 [Compound 8c, 5-(1H-Pyrazol-4-yl)-2-(m-tolyloxy)benzoic acid] — 1.7-fold lower, 3800 nM
- Cc1ccc(Oc2ccc(-c3cn[nH]c3)cc2C(=O)O)cc1 [Compound 8d, 5-(1H-Pyrazol-4-yl)-2-(p-tolyloxy)benzoic acid] — within 1.5-fold, 7000 nM
- O=C(O)c1cc(-c2cn[nH]c2)ccc1Oc1cccc(F)c1 [Compound 8e, 2-(3-Fluorophenoxy)-5-(1H-pyrazol-4-yl)benzoic acid] — 3.8-fold lower, 1700 nM
- O=C(O)c1cc(-c2cn[nH]c2)ccc1Oc1ccc(F)cc1 [Compound 8f, 2-(4-Fluorophenoxy)-5-(1H-pyrazol-4-yl)benzoic acid] — within 1.5-fold, 4600 nM
- O=C(O)c1cc(-c2cn[nH]c2)ccc1Oc1cc2ccccc2c2ccccc12 [Compound 8j, 2-(Phenanthren-9-yloxy)-5-(1H-pyrazol-4-yl)benzoic acid] — 2.8-fold lower, 2300 nM
- O=C(O)c1cc(-c2cn[nH]c2)ccc1OC1C2CC3CC(C2)CC1C3 (stereo not shown) [Compound 8k, 2-((Adamantan-2-yl)oxy)-5-(1H-pyrazol-4-yl)benzoic acid] — 2.5-fold lower, 2600 nM
- O=C(O)c1cc(-c2cn[nH]c2)ccc1Oc1cc2c3c(cccc3c1)CC2 [Compound 8l, 2-((1,2-Dihydroacenaphthylen-4-yl)oxy)-5-(1H-pyrazol-4-yl)benzoic acid] — 5.8-fold lower, 1100 nM
- O=C(O)c1cc(-c2c[nH]nc2F)ccc1Oc1cccc2ccccc12 [Compound 8m, 5-(3-Fluoro-1H-pyrazol-4-yl)-2-(naphthalen-1-yloxy)benzoic acid] — 13-fold lower, 480 nM
- CCc1cc(Oc2ccc(-c3c[nH]nc3F)cc2C(=O)O)cc2ccccc12 [Compound 8o, 2-((4-Ethylnaphthalen-2-yl)oxy)-5-(3-fluoro-1H-pyrazol-4-yl)benzoic acid] — 43-fold lower, 150 nM
- CCc1cccc2cc(Oc3ccc(-c4c[nH]nc4F)cc3C(=O)O)ccc12 [Compound 8p, 2-((5-Ethylnaphthalen-2-yl)oxy)-5-(3-fluoro-1H-pyrazol-4-yl)benzoic acid] — 38-fold lower, 170 nM
- CCc1ccc2ccc(Oc3ccc(-c4c[nH]nc4F)cc3C(=O)O)cc2c1 [Compound 8q, 2-((7-Ethylnaphthalen-2-yl)oxy)-5-(3-fluoro-1H-pyrazol-4-yl)benzoic acid] — 46-fold lower, 140 nM
- O=C(O)c1cc(-c2c[nH]nc2F)ccc1Oc1cc(C2CC2)c2ccccc2c1 [Compound 8r, 2-((4-Cyclopropylnaphthalen-2-yl)oxy)-5-(3-fluoro-1H-pyrazol-4-yl)benzoic acid] — 58-fold lower, 110 nM
- CCc1ccc2c(C3CC3)cc(Oc3ccc(-c4c[nH]nc4F)cc3C(=O)O)cc2c1 [Compound 8s, 2-((4-Cyclopropyl-7-ethylnaphthalen-2-yl)oxy)-5-(3-fluoro-1H-pyrazol-4-yl)benzoic acid] — 97-fold lower, 66 nM
- O=C(O)c1cc(-c2c[nH]nc2F)ccc1Oc1ccc(-c2ccccc2)cc1 [Compound 8t, 2-([1,1′-Biphenyl]-4-yloxy)-5-(3-fluoro-1H-pyrazol-4-yl)benzoic acid] — 18-fold lower, 350 nM
- O=C(O)c1cc(-c2c[nH]nc2F)ccc1Oc1cccc(-c2ccccc2)c1 [Compound 8u, 2-([1,1′-Biphenyl]-3-yloxy)-5-(3-fluoro-1H-pyrazol-4-yl)benzoic acid] — 49-fold lower, 130 nM
- Cc1cc(C)cc(-c2cccc(Oc3ccc(-c4c[nH]nc4F)cc3C(=O)O)c2)c1 [Compound 8v, 2-((3′,5′-Dimethyl-[1,1′-biphenyl]-3-yl)oxy)-5-(3-fluoro-1H-pyrazol-4-yl)benzoic acid] — 27-fold lower, 240 nM

same assay, conditions: HPP tautomerase assay

Point of comparison: `CCc1ccc2ccc(Oc3ccc(-c4c[nH]nc4F)cc3C(=O)O)cc2c1` [Compound 8q, 2-((7-Ethylnaphthalen-2-yl)oxy)-5-(3-fluoro-1H-pyrazol-4-yl)benzoic acid], “lowering of the Ki relative to 8n” value 3 fold. Against it:
- CCc1cc(Oc2ccc(-c3c[nH]nc3F)cc2C(=O)O)cc2ccccc12 [Compound 8o, 2-((4-Ethylnaphthalen-2-yl)oxy)-5-(3-fluoro-1H-pyrazol-4-yl)benzoic acid] — the same, 3 fold
- CCc1cccc2cc(Oc3ccc(-c4c[nH]nc4F)cc3C(=O)O)ccc12 [Compound 8p, 2-((5-Ethylnaphthalen-2-yl)oxy)-5-(3-fluoro-1H-pyrazol-4-yl)benzoic acid] — the same, 3 fold

same assay, conditions: Table 3; HPP as substrate; unit inferred; read-out: HPP Ki

Point of comparison: `Cc1ccc2ccc(Oc3ccc(-c4cn[nH]c4)cc3C(=O)O)cc2c1` [Compound 9u, 2-((7-methylnaphthalen-2-yl)oxy)-5-(1H-pyrazol-4-yl)benzoic acid], Ki 1900 nM. Against it:
- O=C(O)c1cc(-c2c[nH]nc2F)ccc1Oc1cccc(-c2ncccn2)c1 [Compound 9aa, 5-(3-fluoro-1H-pyrazol-4-yl)-2-(3-(pyrimidin-2-yl)phenoxy)benzoic acid] — 8.3-fold lower, 230 nM
- O=C(O)c1cc(-c2c[nH]nc2F)ccc1Oc1cccc(-c2ccc(CCN3CCOCC3)cc2)c1 [Compound 9bb, 5-(3-fluoro-1H-pyrazol-4-yl)-2-((4′-(2-morpholinoethyl)-[1,1′-biphenyl]-3-yl)oxy)benzoic acid] — 5.8-fold lower, 330 nM
- Cc1n[nH]cc1-c1ccc(Oc2ccc3ccccc3c2)c(C(=O)O)c1 [Compound 9cc, 5-(3-methyl-1H-pyrazol-4-yl)-2-(naphthalen-2-yloxy)benzoic acid] — 7.9-fold higher, 15000 nM
- Cc1ccc(-c2cn[nH]c2)cc1C(=O)O [Compound 9e, 2-methyl-5-(1H-pyrazol-4-yl)benzoic acid] — 32-fold higher, 60000 nM
- O=C(O)c1cc(-c2cn[nH]c2)ccc1Oc1cccc(Cl)c1 [Compound 9f, 2-(3-chlorophenoxy)-5-(1H-pyrazol-4-yl)benzoic acid] — 11-fold higher, 20000 nM
- O=C(O)c1cc(-c2cn[nH]c2)ccc1Oc1ccc(Cl)cc1 [Compound 9g, 2-(4-chlorophenoxy)-5-(1H-pyrazol-4-yl)benzoic acid] — 4.4-fold higher, 8400 nM
- COc1ccc(Oc2ccc(-c3cn[nH]c3)cc2C(=O)O)cc1 [Compound 9h, 2-(4-methoxyphenoxy)-5-(1H-pyrazol-4-yl)benzoic acid] — within 1.5-fold, 2300 nM
- COc1cccc(Oc2ccc(-c3cn[nH]c3)cc2C(=O)O)c1 [Compound 9i, 2-(3-methoxyphenoxy)-5-(1H-pyrazol-4-yl)benzoic acid] — within 1.5-fold, 2500 nM
- CC(=O)NCCc1ccc(Oc2ccc(-c3cn[nH]c3)cc2C(=O)O)cc1 [Compound 9l, 2-(4-(2-acetamidoethyl)phenoxy)-5-(1H-pyrazol-4-yl)benzoic acid] — 5.8-fold higher, 11000 nM
- O=C(O)c1cc(-c2cn[nH]c2)ccc1Oc1cccc2ccoc12 [Compound 9m, 2-(benzofuran-7-yloxy)-5-(1H-pyrazol-4-yl)benzoic acid] — 1.9-fold higher, 3700 nM
- O=C(O)c1cccc(Oc2ccc(-c3cn[nH]c3)cc2C(=O)O)c1 [Compound 9n, 2-(3-carboxyphenoxy)-5-(1H-pyrazol-4-yl)benzoic acid] — 4.9-fold higher, 9400 nM
- O=C(O)c1cc(-c2cn[nH]c2)ccc1Oc1ccc2occc2c1 [Compound 9o, 2-(benzofuran-5-yloxy)-5-(1H-pyrazol-4-yl)benzoic acid] — 2-fold higher, 3800 nM
- O=C(O)c1cc(-c2cn[nH]c2)ccc1Oc1ccc2ccoc2c1 [Compound 9p, 2-(benzofuran-6-yloxy)-5-(1H-pyrazol-4-yl)benzoic acid] — within 1.5-fold, 1500 nM
- O=C(O)c1cc(-c2cn[nH]c2)ccc1Oc1cc2c3c(cccc3c1)C=C2 [Compound 9q, 2-(acenaphthylen-4-yloxy)-5-(1H-pyrazol-4-yl)benzoic acid] — within 1.5-fold, 1500 nM
- O=C(O)c1cc(-c2cn[nH]c2)ccc1[S+]([O-])c1ccccc1 (stereo not shown) [Compound 9r, 2-(phenylsulfinyl)-5-(1H-pyrazol-4-yl)benzoic acid] — 6.8-fold higher, 13000 nM
- O=C(O)c1cc(-c2c[nH]nc2F)ccc1Oc1ccc2ccoc2c1 [Compound 9s, 2-(benzofuran-6-yloxy)-5-(3-fluoro-1H-pyrazol-4-yl)benzoic acid] — 3.3-fold lower, 570 nM
- O=C(O)c1cc(-c2c[nH]nc2F)ccc1Oc1cccc(F)c1 [Compound 9t, 5-(3-fluoro-1H-pyrazol-4-yl)-2-(3-fluorophenoxy)benzoic acid] — within 1.5-fold, 2100 nM
